Experimental data as given in publication PMC12948427 (The Journal of Clinical Investigation, 2025).
Values joined by “and” are separate entries in the source; they are usually repeats but may differ in a detail not shown here. Identical values can stand only once. Like-named read-outs stand apart in the source and are kept apart here.

Legend:
[1] = system: 17Cl-1 cells
[2] = system: MHV
[3] = target: T1, hHgs 1-390 protein (Homo sapiens, UniProt O14964)
[4] = target: T1, hHgs 1-390 protein; test: biochemical
[5] = system: M protein; test: BFA treatment and washout: ER export of M protein in 17Cl-1 cells; assay type: cell-based; conditions: for Colocalization of M protein with ERGIC53 / Colocalization of M protein with SEC61B: individual replicate values, Figure S5A; for ERGIC53 (colocalization value, Figure S5B) / SEC61B (colocalization value, Figure S5B): individual replicates
Method: 70–80% confluent 17Cl-1 cells were treated with 5 µg/mL final BFA (Catalog no #HY-
16592; MCE) for 40 min at 37°C. BFA was washed out by three brief rinses in PBS and
cells were then incubated at 37°C for 5 h before fixation with 4% PFA.

T1 sequence (O14964 1-390): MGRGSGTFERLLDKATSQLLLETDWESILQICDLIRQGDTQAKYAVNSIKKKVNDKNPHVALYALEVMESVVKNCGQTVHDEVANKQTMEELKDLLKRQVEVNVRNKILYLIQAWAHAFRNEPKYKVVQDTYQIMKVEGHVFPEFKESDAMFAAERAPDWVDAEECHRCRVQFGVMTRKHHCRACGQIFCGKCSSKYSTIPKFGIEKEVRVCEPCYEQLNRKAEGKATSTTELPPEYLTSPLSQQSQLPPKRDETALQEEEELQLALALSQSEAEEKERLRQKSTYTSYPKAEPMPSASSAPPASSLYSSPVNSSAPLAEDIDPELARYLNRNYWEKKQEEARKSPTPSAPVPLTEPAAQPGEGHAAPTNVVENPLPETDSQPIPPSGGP

What does the source list for `COc1ccc(N)cn1` [5-amino-2 methoxypyridine]?
cell viability, Figures S9A, B, D-F ([1]; concentration 0.01): 100; cell viability, Figures S9A, B, D-F ([1]; concentration 0.03): 100; cell viability, Figures S9A, B, D-F ([1]; concentration 0.1): 100; cell viability, Figures S9A, B, D-F ([1]; concentration 0.3): 100; cell viability, Figures S9A, B, D-F ([1]; concentration 1): 100; cell viability, Figures S9A, B, D-F ([1]; concentration 3): 100; cell viability, Figures S9A, B, D-F ([1]; concentration 10): 100; cell viability, Figures S9A, B, D-F ([1]; concentration 25): 103.896; viability of infected cells (rescue of cytopathic effect), Figures S9G-L ([2]; concentration 10): 50.187 and 47.1573 and 49.7662; viability of infected cells (rescue of cytopathic effect), Figures S9G-L ([2]; concentration 30): 52.4593 and 51.6738 and 47.1012; viability of infected cells (rescue of cytopathic effect), Figures S9G-L ([2]; concentration 100): 53.2448 and 47.1573 and 49.2052; viability of infected cells (rescue of cytopathic effect), Figures S9G-L ([2]; concentration 300): 49.4576 and 49.4296 and 47.5781; viability of infected cells (rescue of cytopathic effect), Figures S9G-L ([2]; concentration 1000): 50.0187 and 48.055 and 47.0451; viability of infected cells (rescue of cytopathic effect), Figures S9G-L ([2]; concentration 3000): 52.3191 and 51.9824 and 49.121; viability of infected cells (rescue of cytopathic effect), Figures S9G-L ([2]; concentration 10000): 58.7432 and 53.4412 and 53.7217; viability of infected cells (rescue of cytopathic effect), Figures S9G-L ([2]; concentration 25000): 59.3884 and 60.7069 and 59.0799

What does the source list for `COc1ccc(N)cn1` [5-amino-2-methoxypyridine]?
Polarization ([3]; 0.00610352 uM): 137; Polarization ([3]; 0.0244141 uM): 154 and 132; Polarization ([3]; 0.0976562 uM): 127 and 143; Polarization ([3]; 0.390625 uM): 133 and 129; Polarization ([3]; 1.5625 uM): 103 and 111; Polarization ([3]; 6.25 uM): 88 and 79; Polarization ([3]; 25 uM): 61; Polarization ([3]; 100 uM): 51 and 48; IC50 [4]: 3.41 µM

What does the source list for `C[C@H]1CCC/C=C/[C@@H]2C[C@H](O)C[C@H]2[C@H](O)/C=C/C(=O)O1` [BFA, Brefeldin A]?
Colocalization of M protein with ERGIC53 ([5]; 5h BFA washout): 0.876 and 0.833 and 0.817; Colocalization of M protein with SEC61B ([5]; 5h BFA washout): 0.423 and 0.481 and 0.508; ERGIC53 (colocalization value, Figure S5B) ([5]; 5h BFA washout): 0.399 and 0.424 and 0.407; SEC61B (colocalization value, Figure S5B) ([5]; 5h BFA washout): 0.895 and 0.946 and 0.906; Colocalization of M protein with ERGIC53 ([5]; BFA treatment): 0.305 and 0.466 and 0.315; Colocalization of M protein with SEC61B ([5]; BFA treatment): 0.951 and 0.905 and 0.916; ERGIC53 (colocalization value, Figure S5B) ([5]; BFA treatment): 0.418 and 0.389 and 0.288; SEC61B (colocalization value, Figure S5B) ([5]; BFA treatment): 0.951 and 0.926 and 0.886; ER export of M protein ([5]; WT 17Cl-1 cells, 5 µg/mL BFA, 40 min): effectively blocked
